Measurements: the NIST ThermoML archive (doi:10.1021/je300873x)

Test: mn = molality of the nth substance listed, in mol/kg
Settings: Liquid, Digital conductivity meter

CCCCCCCCCCCCCC[N+](C)(CCO)CCO.[Br-] [N,N-bis(2-hydroxyethyl)-N-methyltetradecanaminium bromide] + O
Settings | electrical conductivity [S/m]
308.15 K, m1 = 0.00437 | 0.0349
308.15 K, m1 = 0.00466 | 0.0357
308.15 K, m1 = 0.00499 | 0.0367
308.15 K, m1 = 0.00538 | 0.0376
308.15 K, m1 = 0.00583 | 0.0387
308.15 K, m1 = 0.00636 | 0.0401
313.15 K, m1 = 0.00258 | 0.028
313.15 K, m1 = 0.00268 | 0.0291
313.15 K, m1 = 0.00279 | 0.0303
313.15 K, m1 = 0.00291 | 0.0314
313.15 K, m1 = 0.00303 | 0.0327
313.15 K, m1 = 0.00317 | 0.0341
313.15 K, m1 = 0.00332 | 0.0353
313.15 K, m1 = 0.00349 | 0.0364
313.15 K, m1 = 0.00367 | 0.0373
313.15 K, m1 = 0.00388 | 0.038
313.15 K, m1 = 0.0041 | 0.0386
313.15 K, m1 = 0.00436 | 0.0396
313.15 K, m1 = 0.00465 | 0.0403
313.15 K, m1 = 0.00498 | 0.0411
313.15 K, m1 = 0.00537 | 0.0424
313.15 K, m1 = 0.00582 | 0.0437
313.15 K, m1 = 0.00634 | 0.0453
318.15 K, m1 = 0.00258 | 0.0307
318.15 K, m1 = 0.00268 | 0.0318
318.15 K, m1 = 0.00279 | 0.033
318.15 K, m1 = 0.0029 | 0.0344
318.15 K, m1 = 0.00303 | 0.0355
318.15 K, m1 = 0.00317 | 0.0372
318.15 K, m1 = 0.00332 | 0.0389
318.15 K, m1 = 0.00348 | 0.0407
318.15 K, m1 = 0.00367 | 0.0413
318.15 K, m1 = 0.00387 | 0.0425
318.15 K, m1 = 0.0041 | 0.0436
318.15 K, m1 = 0.00435 | 0.0446
318.15 K, m1 = 0.00464 | 0.0455
318.15 K, m1 = 0.00497 | 0.0467
318.15 K, m1 = 0.00536 | 0.0478
318.15 K, m1 = 0.0058 | 0.0494
318.15 K, m1 = 0.00633 | 0.0511
323.15 K, m1 = 0.00257 | 0.0334
323.15 K, m1 = 0.00267 | 0.0347
323.15 K, m1 = 0.00278 | 0.0359
323.15 K, m1 = 0.0029 | 0.0374
323.15 K, m1 = 0.00302 | 0.0388
323.15 K, m1 = 0.00316 | 0.0406
323.15 K, m1 = 0.00331 | 0.0424
323.15 K, m1 = 0.00347 | 0.0444
323.15 K, m1 = 0.00366 | 0.0464
323.15 K, m1 = 0.00386 | 0.0477
323.15 K, m1 = 0.00409 | 0.049
323.15 K, m1 = 0.00434 | 0.0502
323.15 K, m1 = 0.00463 | 0.0514
323.15 K, m1 = 0.00496 | 0.0526
323.15 K, m1 = 0.00535 | 0.054
323.15 K, m1 = 0.00579 | 0.0559
323.15 K, m1 = 0.00632 | 0.0577
